From patent US5084082A, “Soybean plants with dominant selectable trait for herbicide resistance” (priority 1990, dated 1992)
Where a name gives a salt, the structure may show the parent alone.

Key:
Type in all cases: in vivo, soybean
mutant line W23 = experiment: Test B postemergence cross resistance test; conditions: Glycine max, post-emergence
Description: (§1) In the second postemergence test, six true-breeding resistant mutant lines (W4, W17, W19, W20, W23, and W28) were compared to Williams 82 for cross resistance to a broad range of ALS inhibitors including eight sulfonylureas and three imidazolinones. Two seeds were planted in each 10 cm pot and allowed to grow to the second trifoliolate stage. Pots were not thinned back if both plants were at the proper stage. For each of 11 herbicides, two rates (Table VII) were selected based on previous data: the low rate was expected to cause significant injury (but not death) to Williams 82 and the high rate was expected to severely injure or kill Williams 82. All but a few line x rate treatments were replicated twice.
(§2) In both postemergence tests, plants were returned to the greenhouse after treatment and provided with ample light, moisture, and nutrients to support healthy plant growth. Two to three ratings per pot were recorded over a three-week period and averaged to obtain a single value for each pot For each herbicide, analysis of variance on injury ratings was performed separately. Fisher's least significant difference (LSD) was used to determine the significance of line mean differences at each herbicide rate using the 95% level of confidence. […]

Williams 82 [1] = experiment: Test B postemergence cross resistance test; conditions: Glycine max, post-emergence
Description: as §1, §2

mutant line W19 = experiment: Test B postemergence cross resistance test; conditions: Glycine max, post-emergence
Description: as §1, §2

mutant line W17 = experiment: Test B postemergence cross resistance test; conditions: Glycine max, post-emergence
Description: as §1, §2

mutant line W4 = experiment: Test B postemergence cross resistance test; conditions: Glycine max, post-emergence
Description: as §1, §2

mutant line W28 = experiment: Test B postemergence cross resistance test; conditions: Glycine max, post-emergence
Description: as §1, §2

Williams 82 [2] = experiment: Test A postemergence herbicide spray, greenhouse pots
Description: (§3) In the first post-emergence test, two true-breeding resistant mutant lines, W19 and W20, were compared to previously isolated tolerant mutants and wild-type Williams 82. Eighteen pots (20 cm diameter) of each soybean line (2 seeds per pot) were planted using a standard sterile potting mix. When the seedlings reached the second trifoliolate stage, plants were thinned back to one plant per pot. Each pot was then sprayed with a specific herbicide treatment using a conveyor belt spray apparatus to emulate field application. The nine different herbicide treatments included one rate (8 g/ha) of Compound 1 and two rates (8 and 32 g/ha) each of four other sulfonylurea herbicides (Compounds 2,3,7 and 8) (see Table VI) using a factorial treatment design with 2 replications.
as §2

Mutant 1-184A = experiment: as above
Description: as §3, §2

mutant W20 [3] = experiment: as above
Description: as §3, §2

mutant W19 = experiment: as above
Description: as §3, §2

mutant line W20 = experiment: Test B postemergence cross resistance test; conditions: Glycine max, post-emergence
Description: as §1
In both postemergence tests, plants were returned to the greenhouse after treatment and provided with ample light, moisture, and nutrients to support healthy plant growth. Two to three ratings per pot were recorded over a three-week period and averaged to obtain a single value for each pot For each herbicide, analysis of variance on injury ratings was performed separately. Fisher's least significant difference (LSD) was used to determine the significance of line mean differences at each herbicide rate using the 95% level of confidence.

Williams 82 [4] = experiment: Postemergence herbicide spray test of W4-4 (Table VII-A); conditions: two weeks after treatment
Method: (§4) To investigate this hypothesis, a postemergence herbicide spray test was conducted to compare the reaction of W4-4 to both W20 and wild-type Williams. The applicant was particularly interested in the resistance of W4-4 to herbicide treatments that were injurious to both Williams and W20 in a previous test (Table VII). […] Twenty-four plants each of W4-4, W20, and Williams were planted in separate 10 cm pots and allowed to grow to the second trifoliolate stage. Each pot constituted a single experimental unit receiving a single herbicide treatment. Herbicide treatments (Table VIIA) were applied as described for the first postemergence test and were replicated twice. Control plants were sprayed with the spray carrier solution only (water with 0.25% X77 surfactant). At two weeks after treatment, each plant was rated for % herbicide injury as described in Table VIII. Analysis of variance on injury ratings was performed separately for each herbicide to calculate treatment means and standard errors. Fisher's least significant difference (LSD) was used to determine the significance of line means differences at each herbicide rate using the 95% level of confidence. […]

Mutant W4-4 = experiment: as above; conditions: two weeks after treatment
Method: as §4

mutant W20 [5] = experiment: as above; conditions: two weeks after treatment
Method: as §4

W4-4 = experiment: Field use rate test (Table VII-B)
WM82 (Williams) = experiment: Field use rate test (Table VII-B)
W20 = experiment: Field use rate test (Table VII-B)

COC(=O)c1ccccc1S(=O)(=O)NC(=O)N(C)c1nc(C)nc(OC)n1 [Compound 3, Methyl 2-[[[[N-(4-methoxy-6-methyl-1,3,5-triazin-2-yl)N-methylamino]carbonyl]amino]sulfonyl]benzoate]
percent soybean injury at 2 g/ha (mutant line W23; W23, 2 g/ha postemergence): 0%
percent soybean injury at 8 g/ha (mutant line W23; W23, 8 g/ha postemergence): 45%
soybean crop injury at 2 g/ha (Williams 82 [1]; Wm 82, 2 g/ha postemergence): 60%
soybean crop injury at 8 g/ha (Williams 82 [1]; Wm 82, 8 g/ha postemergence): 94%
percent soybean crop injury at 2 g/ha (mutant line W19; W19, 2 g/ha postemergence): 5%
percent soybean crop injury at 8 g/ha (mutant line W19; W19, 8 g/ha postemergence): 29%
soybean crop injury (%) at 2 g/ha (mutant line W17; W17, 2 g/ha postemergence): 0%
soybean crop injury (%) at 8 g/ha (mutant line W17; W17, 8 g/ha postemergence): 25%
% crop injury at 2 g/ha (mutant line W4; W4, 2 g/ha postemergence): 3%
% crop injury at 8 g/ha (mutant line W4; W4, 8 g/ha postemergence): 18%
mean % injury to soybean at 2 g/ha (mutant line W28; W28, 2 g/ha postemergence): 8%
mean % injury to soybean at 8 g/ha (mutant line W28; W28, 8 g/ha postemergence): 21%
mean % injury (Williams 82 [2]; WM 82, 8 g/ha postemergence): 92%
mean % injury (Williams 82 [2]; WM 82, 32 g/ha postemergence): 95%
mean % injury (Mutant 1-184A; 8 g/ha postemergence): 90%
mean % injury (Mutant 1-184A; 32 g/ha postemergence): 91%
mean % injury (mutant W20 [3]; W20, 8 g/ha postemergence): 8%
mean % injury (mutant W20 [3]; W20, 32 g/ha postemergence): 63%
mean % injury (mutant W19; W19, 8 g/ha postemergence): 14%
mean % injury (mutant W19; W19, 32 g/ha postemergence): 63%
percent crop injury at 2 g/ha (mutant line W20; W20, 2 g/ha postemergence): 0%

CCS(=O)(=O)c1cccnc1S(=O)(=O)NC(=O)Nc1nc(OC)cc(OC)n1 [Compound 7, N-[[(4,6-dimethoxy-2-pyrimidinyl)amino]carbonyl]-3-(ethylsulfonyl)-2-pyridinesulfonamide]
percent soybean injury at 1 g/ha (mutant line W23; W23, 1 g/ha postemergence): 31%
percent soybean injury at 4 g/ha (mutant line W23; W23, 4 g/ha postemergence): 60%
soybean crop injury at 1 g/ha (Williams 82 [1]; Wm 82, 1 g/ha postemergence): 61%
soybean crop injury at 4 g/ha (Williams 82 [1]; Wm 82, 4 g/ha postemergence): 98%
percent soybean crop injury at 1 g/ha (mutant line W19; W19, 1 g/ha postemergence): 19%
percent soybean crop injury at 4 g/ha (mutant line W19; W19, 4 g/ha postemergence): 65%
soybean crop injury (%) at 1 g/ha (mutant line W17; W17, 1 g/ha postemergence): 16%
soybean crop injury (%) at 4 g/ha (mutant line W17; W17, 4 g/ha postemergence): 55%
% crop injury at 1 g/ha (mutant line W4; W4, 1 g/ha postemergence): 21%
% crop injury at 4 g/ha (mutant line W4; W4, 4 g/ha postemergence): 69%
mean % injury to soybean at 1 g/ha (mutant line W28; W28, 1 g/ha postemergence): 20%
mean % injury to soybean at 4 g/ha (mutant line W28; W28, 4 g/ha postemergence): 54%
mean % injury (Williams 82 [2]; WM 82, 8 g/ha postemergence): 95%
mean % injury (Williams 82 [2]; WM 82, 32 g/ha postemergence): 93%
mean % injury (Mutant 1-184A; 8 g/ha postemergence): 93%
mean % injury (Mutant 1-184A; 32 g/ha postemergence): 93%
mean % injury (mutant W20 [3]; W20, 8 g/ha postemergence): 65%
mean % injury (mutant W20 [3]; W20, 32 g/ha postemergence): 84%
mean % injury (mutant W19; W19, 8 g/ha postemergence): 65%
mean % injury (mutant W19; W19, 32 g/ha postemergence): 80%
mean % injury (Williams 82 [4]; WM82, 4 g/ha postemergence): 83%
mean % injury (Williams 82 [4]; WM82, 16 g/ha postemergence): 93%
mean % injury (Williams 82 [4]; WM82, 32 g/ha postemergence): 90%
mean % injury (Mutant W4-4; W4-4, 4 g/ha postemergence): 10%
mean % injury (Mutant W4-4; W4-4, 16 g/ha postemergence): 30%
mean % injury (Mutant W4-4; W4-4, 32 g/ha postemergence): 43%
mean % injury (mutant W20 [5]; W20, 4 g/ha postemergence): 28%
mean % injury (mutant W20 [5]; W20, 16 g/ha postemergence): 43%
mean % injury (mutant W20 [5]; W20, 32 g/ha postemergence): 83%
percent crop injury at 1 g/ha (mutant line W20; W20, 1 g/ha postemergence): 28%
percent crop injury at 4 g/ha (mutant line W20; W20, 4 g/ha postemergence): 66%

CC(C)C1(C)N=C(c2ncccc2C(=O)O)NC1=O (stereo not drawn) [Compound 11, 2-[4,5-dihydro-4-methyl-4-(1-methylethyl)-5-oxo-1H-imidazol-2-yl]-3-pyridinecarboxylic acid, 1-methylethanamine salt]
mean % injury (W4-4; W4-4, 8 g/ha): 0%
mean % injury (W4-4; W4-4, 17.5 g/ha): 5%
mean % injury (W4-4; W4-4, 35 g/ha): 25%
percent soybean injury at 16 g/ha (mutant line W23; W23, 16 g/ha postemergence): 41%
percent soybean injury at 64 g/ha (mutant line W23; W23, 64 g/ha postemergence): 74%
soybean crop injury at 16 g/ha (Williams 82 [1]; Wm 82, 16 g/ha postemergence): 49%
soybean crop injury at 64 g/ha (Williams 82 [1]; Wm 82, 64 g/ha postemergence): 75%
percent soybean crop injury at 16 g/ha (mutant line W19; W19, 16 g/ha postemergence): 41%
percent soybean crop injury at 64 g/ha (mutant line W19; W19, 64 g/ha postemergence): 60%
soybean crop injury (%) at 16 g/ha (mutant line W17; W17, 16 g/ha postemergence): 39%
soybean crop injury (%) at 64 g/ha (mutant line W17; W17, 64 g/ha postemergence): 61%
% crop injury at 16 g/ha (mutant line W4; W4, 16 g/ha postemergence): 39%
% crop injury at 64 g/ha (mutant line W4; W4, 64 g/ha postemergence): 73%
mean % injury to soybean at 16 g/ha (mutant line W28; W28, 16 g/ha postemergence): 45%
mean % injury to soybean at 64 g/ha (mutant line W28; W28, 64 g/ha postemergence): 68%
mean % injury (Williams 82 [4]; WM82, 64 g/ha postemergence): 73%
mean % injury (Williams 82 [4]; WM82, 125 g/ha postemergence): 83%
mean % injury (Mutant W4-4; W4-4, 64 g/ha postemergence): 38%
mean % injury (Mutant W4-4; W4-4, 125 g/ha postemergence): 53%
mean % injury (mutant W20 [5]; W20, 64 g/ha postemergence): 48%
mean % injury (mutant W20 [5]; W20, 125 g/ha postemergence): 80%
mean % injury (WM82 (Williams); WM82, 8 g/ha): 50%
mean % injury (WM82 (Williams); WM82, 17.5 g/ha): 60%
mean % injury (WM82 (Williams); WM82, 35 g/ha): 75%
percent crop injury at 16 g/ha (mutant line W20; W20, 16 g/ha postemergence): 44%
percent crop injury at 64 g/ha (mutant line W20; W20, 64 g/ha postemergence): 61%
mean % injury (W20; W20, 8 g/ha): 20%
mean % injury (W20; W20, 17.5 g/ha): 30%
mean % injury (W20; W20, 35 g/ha): 60%
